Results reported in patent US20160235727A1, “NOVEL PYRROLIDINE DERIVED BETA 3 ADRENERGIC RECEPTOR AGONISTS” (Merck Sharp & Dohme Corp., priority 2013, published 2016).
pEC50: −log10 of the molar value.

Target: T1, human β3-AR (Homo sapiens, UniProt P13945)
T1 construct: expressed in transfected cells; host or cells: CHO (Chinese hamster ovary) cells, stably transfected
Assay: cAMP functional agonist assay (LANCE TR-FRET) in CHO cells expressing cloned human β3-AR
Type: cell-based
Settings: for pEC50: CHO cells stably expressing cloned human β3-adrenoceptor, cAMP release, read-out: Human β3-AR Agonism EC50; for Fold drop in potency vs. 2-chloropyridine analog: EC50 of comparative example divided by EC50 of corresponding 2-chloropyridine compound; for Human β3-AR Agonist Activity (%): percent maximum activation relative to isoproterenol
Experimental: The ability of compounds to activate the human β3-AR receptor was measured using a CHO cell line stably expressing the cloned human β1-, β2-, and β3-adrenoceptors (β-AR). […] To quantify the amount of cAMP released following β-AR activation, the LANCE cAMP kit (Perking Elmer), a time-resolved fluorescence resonance energy transfer immunoassay, was used. Compounds were serially diluted in DMSO and an aliquot added to either 384-well or 96-well micro titer plates in assay buffer (5 mM HEPES, 0.1% BSA in Hank's Balanced Salt Solution). […] Following 30 min incubation at room temperature, the cells were lysed by the addition of LANCE detection buffer which contained a europium-labeled cAMP tracer. Fluorescence was measured following one hour incubation at room temperature using a Perking Elmer Envision plate reader, exciting at 340 nm and measuring emission at 615 nm and 665 nm. For each assay, a cAMP standard curve was included and used to convert fluorescence readings directly to cAMP amounts. The values were then normalized to isoproterenol, a known full agonist of β-AR, which was titrated in every assay and the EC50 determined using a custom in-house data analysis package. Along with EC50, the percent maximum activation relative to isoproterenol is reported.
The cAMP production is measured using a homogenous time-resolved fluorescence resonance energy transfer immunoassay (LANCE™, Perkin Elmer) according to the manufacture's instructions. Chinese hamster ovary (CHO) cells, stably transfected with the cloned β-adrenergic receptor (β1, β2 or β3) are harvested after 3 days of subculturing. Harvesting of cells is done with Enzyme-free Dissociation Media (Specialty Media). Cells are then counted and resuspended in assay buffer (Hank's Balanced salt solution supplemented with 5 mM HEPES, […]) containing a phosphodiesterase inhibitor (IBMX, 0.6 mM). The reaction is initiated by mixing 6,000 cells in 6 μL with 6 μL Alexa Fluor labeled cAMP antibody (LANCE™ kit) which is then added to an assay well containing 12 μL of compound (diluted in assay buffer to 2× final concentration). The reaction proceeds for 30 minutes at RT and is terminated by the addition of 24 ul detection buffer (LANCE™ kit). The assay plate is then incubated for 1 h at RT and time-resolved fluorescence measured on a Perkin Elmer Envision reader or equivalent. The unknown cAMP level is determined by comparing fluorescence levels to a cAMP standard curve.
The non-selective, full agonist β-adrenergic ligand isoproterenol is used at all three receptors to determine maximal stimulation. […] Data are analyzed using Microsoft Excel and Graphpad Prism or an internally developed data analysis software package. […]

T1 sequence (P13945 whole entry): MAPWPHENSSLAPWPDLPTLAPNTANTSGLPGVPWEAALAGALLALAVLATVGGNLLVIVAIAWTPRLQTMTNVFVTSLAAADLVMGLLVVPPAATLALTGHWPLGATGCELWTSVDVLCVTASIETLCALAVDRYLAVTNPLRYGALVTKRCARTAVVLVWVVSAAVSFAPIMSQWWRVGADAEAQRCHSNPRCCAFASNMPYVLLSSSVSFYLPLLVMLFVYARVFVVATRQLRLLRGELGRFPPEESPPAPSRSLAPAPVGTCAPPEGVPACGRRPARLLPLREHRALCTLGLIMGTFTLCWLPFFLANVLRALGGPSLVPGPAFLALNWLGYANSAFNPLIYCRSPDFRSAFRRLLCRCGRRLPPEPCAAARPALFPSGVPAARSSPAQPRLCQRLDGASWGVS

Row | Structure (SMILES) | pEC50 | Fold drop in potency vs. 2-chloropyridine analog [fold] | Human β3-AR Agonist Activity (%)
1 | COC(C)CN(C)C(=O)c1ccc(C[C@@H]2CC[C@H]([C@H](O)c3ccccc3)N2)cc1 (mixture of isomers) [Example 2-B, 4-(((2S,5R)-5-((R)-hydroxy(phenyl)methyl)pyrrolidin-2-yl)methyl)-N-(2-methoxypropyl)-N-methylbenzamide] | 6.77 | 1.4 | 94
2 | COCCN(C)C(=O)c1ccc(C[C@@H]2CC[C@H]([C@H](O)c3ccc(Cl)nc3)N2)cc1 [Example 1-A] | 7.02 | – | 100
3 | COCCN(C)C(=O)c1ccc(C[C@@H]2CC[C@H]([C@H](O)c3ccccc3)N2)cc1 [Example 1-B, 4-(((2S,5R)-5-((R)-hydroxy(phenyl)methyl)pyrrolidin-2-yl)methyl)-N-(2-methoxyethyl)-N-methylbenzamide] | 6.35 | 4.6 | 93
4 | COC(C)CN(C)C(=O)c1ccc(C[C@@H]2CC[C@H]([C@H](O)c3ccc(Cl)nc3)N2)cc1 (stereo partly drawn) [Example 2-A, 4-(((2S,5R)-5-((R)-(6-chloropyridin-3-yl)(hydroxy)methyl)pyrrolidin-2-yl)methyl)-N-(2-methoxypropyl)-N-methylbenzamide] | 6.93 | – | 86
5 | COC(CN(C)C(=O)c1ccc(C[C@@H]2CC[C@H]([C@H](O)c3ccc(Cl)nc3)N2)cc1)c1cccc(=O)[nH]1 (stereo partly drawn) [Example 3-A, 4-(((2S,5R)-5-((R)-(6-chloropyridin-3-yl)(hydroxy)methyl)pyrrolidin-2-yl)methyl)-N-(2-methoxy-2-(6-oxo-1,6-dihydropyridin-2-yl)ethyl)-N-methylbenzamide] | 6.69 | – | 81
6 | COC(CN(C)C(=O)c1ccc(C[C@@H]2CC[C@H]([C@H](O)c3ccccc3)N2)cc1)c1cccc(=O)[nH]1 (stereo partly drawn) [Example 3-B, 4-(((2S,5R)-5-((R)-hydroxy(phenyl)methyl)pyrrolidin-2-yl)methyl)-N-(2-methoxy-2-(6-oxo-1,6-dihydropyridin-2-yl)ethyl)-N-methylbenzamide] | 6.39 | 2.0 | 101
7 | Cc1cc(CN(C)C(=O)c2ccc(C[C@@H]3CC[C@H]([C@H](O)c4ccc(Cl)nc4)N3)cc2)n[nH]1 [Example 4-A, 4-(((2S,5R)-5-((R)-(6-chloropyridin-3-yl)(hydroxy)methyl)pyrrolidin-2-yl)methyl)-N-methyl-N-((5-methyl-1H-pyrazol-3-yl)methyl)benzamide] | 8.30 | – | 104
8 | Cc1cc(CN(C)C(=O)c2ccc(C[C@@H]3CC[C@H]([C@H](O)c4ccccc4)N3)cc2)n[nH]1 [Example 4-B, 4-(((2S,5R)-5-((R)-hydroxy(phenyl)methyl)pyrrolidin-2-yl)methyl)-N-methyl-N-((5-methyl-1H-pyrazol-3-yl)methyl)benzamide] | 7.85 | 2.6 | 108
9 | Cc1cc(CN(C)C(=O)c2ccc(C[C@@H]3CC[C@H]([C@H](O)c4ccc(OC(F)F)cc4)N3)cc2)n[nH]1 [Example 4-E, 4-(((2S,5R)-5-((R)-(4-(difluoromethoxy)phenyl)(hydroxy)methyl)pyrrolidin-2-yl)methyl)-N-methyl-N-((5-methyl-1H-pyrazol-3-yl)methyl)benzamide] | 7.05 | 16.4 | 79
10 | Cc1cc(CN(C)C(=O)c2ccc(C[C@@H]3CC[C@H]([C@H](O)c4ccc(F)cc4)N3)cc2)n[nH]1 [Example 4-F, 4-(((2S,5R)-5-((R)-(4-fluorophenyl)(hydroxy)methyl)pyrrolidin-2-yl)methyl)-N-methyl-N-((5-methyl-1H-pyrazol-3-yl)methyl)benzamide] | 7.72 | 3.5 | 105
11 | Cc1cc(CN(C)C(=O)c2ccc(C[C@@H]3CC[C@H]([C@H](O)c4ccc(Cl)cc4)N3)cc2)n[nH]1 [Example 4-G, 4-(((2S,5R)-5-((R)-(4-chlorophenyl)(hydroxy)methyl)pyrrolidin-2-yl)methyl)-N-methyl-N-((5-methyl-1H-pyrazol-3-yl)methyl)benzamide] | 8.40 | 0.8 | 95
12 | Cc1cc(CN(C)C(=O)c2ccc(C[C@@H]3CC[C@H]([C@H](O)c4ccc(F)nc4)N3)cc2)n[nH]1 [Example 4-Q, 4-(((2S,5R)-5-((R)-(6-fluoropyridin-3-yl)(hydroxy)methyl)pyrrolidin-2-yl)methyl)-N-methyl-N-((5-methyl-1H-pyrazol-3-yl)methyl)benzamide] | 7.11 | 14.4 | 106
13 | Cc1cc(CN(C)C(=O)c2ccc(C[C@@H]3CC[C@H]([C@H](O)c4cncc(F)c4)N3)cc2)[nH]n1 [Example 4-R, 4-(((2S,5R)-5-((R)-(5-fluoropyridin-3-yl)(hydroxy)methyl)pyrrolidin-2-yl)methyl)-N-methyl-N-((5-methyl-1H-pyrazol-3-yl)methyl)benzamide] | 7.35 | 8.3 | 101
14 | CCC(c1cc(C)n[nH]1)N(C)C(=O)c1ccc(C[C@@H]2CC[C@H]([C@H](O)c3ccc(Cl)nc3)N2)cc1 (stereo partly drawn) [Example 5-A, 4-(((2S,5R)-5-((R)-(6-chloropyridin-3-yl)(hydroxy)methyl)pyrrolidin-2-yl)methyl)-N-methyl-N-(1-(5-methyl-1H-pyrazol-3-yl)propyl)benzamide] | 8.70 | – | 102
15 | CCC(c1cc(C)[nH]n1)N(C)C(=O)c1ccc(C[C@@H]2CC[C@H]([C@H](O)c3cccnc3)N2)cc1 (stereo partly drawn) [Example 5-H, 4-(((2S,5R)-5-((R)-hydroxy(pyridin-3-yl)methyl)pyrrolidin-2-yl)methyl)-N-methyl-N-(1-(5-methyl-1H-pyrazol-3-yl)propyl)benzamide] | 8.52 | 1.6 | 106
16 | Cc1cc(C(Cc2ccccc2)N(C)C(=O)c2ccc(C[C@@H]3CC[C@H]([C@H](O)c4ccc(Cl)nc4)N3)cc2)[nH]n1 (stereo partly drawn) [Example 6-A, 4-(((2S,5R)-5-((R)-(6-chloropyridin-3-yl)(hydroxy)methyl)pyrrolidin-2-yl)methyl)-N-methyl-N-(1-(5-methyl-1H-pyrazol-3-yl)-2-phenylethyl)benzamide] | 8.52 | – | 93
17 | Cc1cc(C(Cc2ccccc2)N(C)C(=O)c2ccc(C[C@@H]3CC[C@H]([C@H](O)c4cccnc4)N3)cc2)[nH]n1 (stereo partly drawn) [Example 6-H, 4-(((2S,5R)-5-((R)-hydroxy(pyridin-3-yl)methyl)pyrrolidin-2-yl)methyl)-N-methyl-N-(1-(5-methyl-1H-pyrazol-3-yl)-2-phenylethyl)benzamide] | 8.15 | 2.4 | 92
18 | CC(C)c1cc(CN(C)C(=O)c2ccc(C[C@@H]3CC[C@H]([C@H](O)c4ccc(Cl)nc4)N3)cc2)n[nH]1 [Example 7-A, 4-(((2S,5R)-5-((R)-(6-chloropyridin-3-yl)(hydroxy)methyl)pyrrolidin-2-yl)methyl)-N-((5-isopropyl-1H-pyrazol-3-yl)methyl)-N-methylbenzamide] | 7.23 | – | 95
